Assay results from patent US20050239873A1 (priority 1999, published 2005).

Columns and labels:
S9 metabolism = format: in vitro ADME, human; settings: pH 7.4
From the text: All chemicals and solvents used for sample preparation and HPLC analysis were analytical grade. Acetonitrile, methanol, and phosphoric acid were purchased from Fisher Scientific (Atlanta, Ga.). Hepatic S9 fractions from male CD2F1 mice, male Sprague Dawley rats, male dogs, and male humans were purchased from In Vitro Technologies (Boston, Mass.). The National Cancer Institute provided samples of the test compounds and male CD2F1 mice. Fischer 344 rats with implanted jugular cannulas were obtained from Charles River Laboratories (Cambridge, Mass.). All animal use and care procedures were approved by the Institutional Committee on Animal Use and Care at the University of Alabama at Birmingham and conformed to the guidelines found in Guide for the Care and Use of Laboratory Animals, National Academy Press, 1996.
To evaluate metabolism of the test compounds by S9 fractions from various species, reaction systems maintained at 37° C. contained 2-OMe-A3 (500 ng/ml) and S9 (1 mg protein/ml) in 100 mM Tris buffer (pH 7.4). At selected times, triplicate portions of the mixtures were removed and processed for analysis, as described above.

[1] = system: mitochondria with normal levels of Bcl-xL expression; assay: JC-1 membrane potential of isolated mitochondria; design: species or system murine
Experimental: Isolated mitochondria were loaded with JC-1 prior to treatment, and mitochondrial labeling was determined using FACS. […] Antimycin A-treated mitochondria with high levels of Bcl-xL had lower levels of JC-1 staining than parallel samples treated with CCCP. Uncoupled mitochondria still retain a significant Donnan potential because of trapped anionic species and it is likely that antimycin-induced PT and/or swelling of mitochondria led to a further reduction of this residual potential.
As observed for the parent compound, antimycin A3, mitochondria with normal levels of BCl-xL expression were not affected by the 2-methoxy analog.

NCI-H929 = assay: Propidium iodide exclusion / flow cytometry cytotoxicity; format: cell-based, human; settings: 5 to about 20 μg/ml
Experimental: (§1) Cell survival was assayed by exclusion of propidium iodide (PI; 10 μg/ml) by unfixed cells. Annexin V-FITC (Pharmingen) or 3, 3′-dihexyloxacarbocyanine iodide (DiOC6(3); Molecular Probes) staining was analyzed together with PI to discriminate early apoptotic cells. Apoptotic cells were also measured as sub-G1 events among ethanol-fixed cells stained with 10 μg/ml PI. All cell samples were analyzed using a benchtop FACSCalibur™ (Becton Dickinson, San Jose, Calif.). Flow data were analyzed using MultiCycle AV software (Phoenix Flow Systems). For intracellular pH measurements, cell pellets were washed once and resuspended in 2 ml of HEPES-buffered medium (no phenol red and no serum). Carboxy-SNARF-1-AM (Molecular Probes, 1 mM stock in DMSO, stored at −20° C.) was added to a final concentration of 10 μM, and the cells were incubated for 30 min at 37° C. Following incubation with SNARF, cells were sedimented and the pellets were held on ice. Immediately before analysis, pellets were resuspended in […] (HBSS; experimental buffer) or high-[K+] buffer containing nigericin (calibration samples).

U266 = assay: as above; format: cell-based, human; settings: 5 to about 20 μg/ml
Experimental: as §1

[2] = system: TABX1A cells (under-expressing Bcl-xL); assay: Cell viability by trypan blue dye exclusion; settings: 2 μg/ml, without fructose, six hours
From the text: Briefly, a DNA fragment encoding the full-length mouse BCl-xL cDNA was isolated from the plasmid PBS.BCL-xL (Tzung et al., Am. J. Path. 150:1985-1995, 1997, incorporated herein by reference in its entirety) by digestion with the restriction endonuclease EcoRI. This EcoRI fragment was cloned into the EcoRI site of the mammalian expression vector pSFFV (Fuhlbrigge et al., Proc. Nat. Acad. Sci. USA 85:5649-5653, 1988) in both sense and antisense orientations, to form expression plasmids pSFFV.Bcl-xL(sense) or pSFFV.Bcl-xL(antisense), respectively. The tumorigenic murine hepatocyte cell line TAMH was transfected by lipofection (Lipofectamine, Life Technologies, Rockville, Md., according to the manufacturer's recommendations) with the plasmids pSFFV.neo (the control), pSFFV.Bcl-xL(sense) or pSFFV.Bcl-xL(antisense). […] Transfectants were selected for the acquisition of neomycin resistance by growing cells in the presence of 750 μg/ml of G418. Bulk transfectants were cloned by limiting dilution and individual clones were screened by immunoblot analysis to determine the level of BCl-xL protein expression as described below.
Selected transfectants were then tested for whole cell sensitivity to several apoptotic agents. Transfected cells were cultured to reach approximately 80% confluency prior to plating an equal number of cells from selected clones on 12-well tissue culture plates. […] Cell viability was determined by trypan blue dye exclusion. The percentage of viable cells was calculated by the number of viable cells (treated with a particular apoptogenic agent) divided by the number in the control group (untreated).
TABX2S cells and TABX1A cells were also examined for the effects of various mitochondrial inhibitors. […] At various time points after drug treatment, cells were trypsinized, and cell viability was determined by trypan blue dye exclusion. The number of viable cells were counted and normalized to control group (i.e., % control=number of viable cells (treated group)/number of viable cells (control group)×100).

[3] = system: NB4, an acute promyelocytic cell line; assay: Propidium iodide exclusion cytotoxicity; format: cell-based, human
Experimental: as §1

[4] = system: myeloid leukemia cell lines; assay: Propidium iodide exclusion cytotoxicity; format: cell-based, human; settings: 20 μg/ml, even after 48 h; seven or eight cell lines
Experimental: as §1

[5] = system: leukemia and lymphoma cell lines (DHL4, Daudi, Ramos, Molt4 and Jurkat); assay: Propidium iodide exclusion cytotoxicity; format: cell-based, human; settings: 5 to about 20 μg/ml
Experimental: as §1

[6] = system: mitochondria from TABX2S cells; assay: Rhodamine 123 retention assay; design: species or system murine; settings: five minutes after adding
Experimental: Rh-123 is a cationic lipid-soluble fluorescent dye that accumulates in mitochondria in proportion to the mitochondrial membrane potential. Mitochondria were isolated from TABX2S cells (over-expressing Bcl-xL) and from control cells, prepared as described in Example 2. The isolated mitochondria were loaded with Rh-123 by incubating with 10 μM Rh-123 for 30 minutes, washed and resuspended in buffer. […] Less than 40% of Rh-123 was retained in antimycin A-treated TABX2S mitochondria, compared with greater than 80% retained in control mitochondria.

Molecule | half-life (S9 metabolism; 500 ng/ml, 37° C.) | half-life at 2000 ng/ml (S9 metabolism; male, human, hepatic S9 fraction, 2000 ng/ml) | mitochondrial depolarization (JC-1) [1] | sensitivity (PI exclusion) (NCI-H929) | sensitivity (PI exclusion) (U266) | survival [2] | sensitivity (PI exclusion) [3] | sensitivity (PI exclusion) [4] | sensitivity (PI exclusion) [5] | Rh-123 retained [6]
CCCC[C@H]1C(=O)OC(C)[C@H](NC(=O)c2cccc(NC=O)c2OC)C(=O)O[C@@H](C)C1OC(=O)CC(C)C (stereo partly shown) [2-OMeA3, Antimycin A3 methyl ether] | only slightly less than that for the control | ~10 min | not affected |  |  |  |  |  |  | 
antimycin A |  |  |  | sensitive | sensitive | 87% | modestly antimycin-sensitive | resistant | sensitive | Less than 40%
